Data: publication PMC8641662 (Frontiers in Plant Science, 2021)

Experiments:
red clover HDT1 = red clover HDT1 (Trifolium pratense, UniProt A0A384ZRD3); experiment: Determination of kinetic parameters of HDT (initial rates by release of free CoA, DTNB, purified histidine-tagged HDT1); details: for kcat / Km: variable acceptor substrate; for Km: pH 8.0, 25°C
Description: Kinetic parameters for HDT were determined by measuring initial reaction rates by release of free CoA in real time using DTNB [5,5′-dithio-bis-(2-nitrobenzoic acid)] and spectroscopy as detailed elsewhere ([Sullivan and Bonawitz, 2018]). Measurements were made in a temperature-controlled spectrophotometer at 25°C. Reactions were carried out in 100mM sodium phosphate, 1mM EDTA, pH 8.0. Acceptor substrates were prepared in 1N HCl as 66.7×stock solutions, so an equal amount of 1N NaOH was added to reactions to neutralize the HCl (15mM final). Substrate and enzyme amounts used are detailed in Table 2.
All kinetic data analyses were carried out using GraphPad Prism version 7 or higher for Mac OS (GraphPad Software, La Jolla, CA, United States). Each analysis (i.e., series of substrate concentrations) was carried out in duplicate on different days with freshly prepared substrate and enzyme dilutions. Data were analyzed by non-linear regression of the replicated data. […] Kinetic parameters are reported±standard error (SE) as determined from the non-linear regression.
More limited analyses (explained below) were carried out with L-Phe and L-Leu acceptor substrates.

red clover HDT (HDT1) = experiment: In vitro hydroxycinnamoyl-CoA transferase activity assay with crude E. coli extracts containing recombinant HDT, products by HPLC with PDA and MS; assay type: biochemical, red clover (Trifolium pratense L.); details: p-coumaroyl-, caffeoyl- or feruloyl-CoA donor; HPLC with PDA and MS detection
Description: General in vitro reactions for hydroxycinnamoyl-CoA transferase activity contained 100mM sodium phosphate buffer (pH 7.5), 25 to 50mM ascorbate, 1 to 2mM p-coumaroyl-, caffeoyl-, or feruloyl-CoA donor substrate, 1 to 6mM acceptor substrate (L-amino acids, shikimic acid, or malic acid), and red clover leaf or E. coli extract. When red clover extract was the enzyme source, reaction head space was exchanged for nitrogen to prevent oxidation of caffeoyl and L-DOPA moieties by endogenous PPO. Reactions were incubated at 30°C for up to 1h prior to being stopped by the addition of one-fifth volume of 10% formic acid. Precipitated protein was removed by centrifugation (17,000×g for 5min at room temperature) and the supernatant analyzed for reaction products by HPLC as described above.
Crude E. coli extracts containing the recombinant proteins were incubated with hydroxycinnamoyl-CoAs and acceptors, and the reactions were analyzed by HPLC with PDA and MS detection. […] In the case of caffeoyl-L-Tyr and caffeoyl-L-DOPA, where authentic compound was available for purchase, the in vitro-formed products were indistinguishable from the purchased standards in terms of retention time, UV absorption spectrum, and (m/z). For caffeoyl-L-Tyr, we also produced sufficient compound via an HDT1-mediated reaction to carry out ^1H and ^13C NMR to further confirm product identity (Supplementary Figure S2). Chemical shifts were consistent with those previously published for this compound ([Stark and Hofmann, 2005]). […] We only tested L-amino acids with HDT1, since this is what is present in clovamide and what is most abundantly present in nature. […] In this case, ability of the D-amino acid substrates to serve as acceptor substrates could be due to their structural (including stereochemistry) similarity to the D-phenyllactic acid acceptor also used by this enzyme.

[1] = substrate: N[C@@H](Cc1ccc(O)c(O)c1)C(=O)O; experiment: purified protein, by the assay type; details: other: variable acceptor substrate, pH 8.0, 25°C
[2] = substrate: N[C@@H](Cc1ccc(O)cc1)C(=O)O; experiment: purified protein, by the assay type; details: other: variable acceptor substrate, pH 8.0, 25°C
[3] = constant substrate FA-CoA (20μM)
[4] = constant substrate p-CA-CoA (20μM)
[5] = constant substrate CA-CoA (50μM)

For `N[C@@H](Cc1ccc(O)c(O)c1)C(=O)O` [L-DOPA, L-3,4-dihydroxyphenlylalanine], the kcat (red clover HDT1; [3]) was 0.75 ± 0.015 s⁻¹, the kcat (red clover HDT1; [4]) was 2.00 ± 0.022 s⁻¹ and the “Use as acceptor substrate (product formation with hydroxycinnamoyl-CoA donors)” value (“Use as acceptor substrate” below) (red clover HDT (HDT1)) was “capable of transferring”.

In the case of `CC(C)C[C@H](N)C(=O)O` [L-Leu, L-leucine], the Km (red clover HDT1; [5]) is reported as greater than 10 mM and the “Use as acceptor substrate” value (red clover HDT (HDT1)) is reported as “can also serve as acceptors”.

In the case of `N[C@@H](Cc1ccccc1)C(=O)O` [L-Phe, L-phenylalanine], the Km (red clover HDT1; [5]) is reported as greater than 10 mM and the “Use as acceptor substrate” value (red clover HDT (HDT1)) is reported as “capable of transferring”.

`N[C@@H](Cc1c[nH]c2ccccc12)C(=O)O` [L-Trp, L-tryptophan] gave a kcat (red clover HDT1; [5]) of 1.21 ± 0.007 s⁻¹, a Km (red clover HDT1; [5]) of 1.25 ± 0.0267 mM and a kcat (red clover HDT1; [3]) of 0.35 ± 0.007 s⁻¹. It also gave a Km (red clover HDT1; [3]) of 0.273 ± 0.0241 mM, a kcat (red clover HDT1; [4]) of 1.00 ± 0.009 s⁻¹ and a Km (red clover HDT1; [4]) of 2.16 ± 0.0634 mM. For the same molecule, the “Use as acceptor substrate” value (red clover HDT (HDT1)) was “can also serve as acceptors”.

`N[C@@H](Cc1ccc(O)cc1)C(=O)O` [L-Tyr, L-tyrosine] was tested, and the “catalytic efficiency, fold higher compared to L-DOPA as acceptor” value (red clover HDT1; acceptor substrate comparison) was “about 10 fold” and the “Use as acceptor substrate” value (red clover HDT (HDT1)) was “capable of transferring”.

With `N=C(N)NCCC[C@H](N)C(=O)O` [arginine] the “Use as acceptor substrate” value (red clover HDT (HDT1)) was “no product was detected”.

With `O=C(O)CC(O)C(=O)O` (stereo not shown) [malic acid] the “Use as acceptor substrate” value (red clover HDT (HDT1)) was “No reaction products were seen”.

For `NCCc1ccc(O)cc1` [tyramine], the “Use as acceptor substrate” value (red clover HDT (HDT1)) was “no reaction products were seen”.

B1: red clover HDT1 (Trifolium pratense) (protein)
chain: MVTIIASHTVIPEEPTPQGPFWLSDMDQVVRIRDVPTLYIYKTPKKNQENKNIVETFKNSLSKILVHYYPIAGRLCYIEGGRLELNLNAKGAILVEAETEKTMNDYGDFSHFDTIKELVPMIDYNQPIEEIPNFVVQLTNFKNNEGFAIGVAFLHPLSDGLGAIKFINSWAKIARGETLEANELPFLDRKLLKFSHTPLEPRFEHLELKPLPLILGRKDASEEKEKKTSATLLKLSSEQVDKLKKKANEEDVLGIQKKEYSRPYSKFEVISAHIWRCASKARELEDNQESVIRFIADVKNRMIPPLPKNYFGNALTQTATKGYIGEITSKPLGYVAQKIREATELINDEYIRSQIDVVRSFEHLDDARKMFIGEKARYFGNPNFNLTSWLSMPVYEADFGWGKPNYFGLADVSPHDRAVILLSPDDDGSVLVSFHFQIAHMELFNKYFYEEI
B1 gave a Km [1, 5] of 2465.0 ± 65.88 µM, a Km [1, 3] of 150.0 ± 7.65 µM and a Km [1, 4] of 989.8 ± 35.92 µM. It also gave a Km [2, 5] of 342.0 ± 14.37 µM, a kcat [2, 5] of 9.12 ± 0.114 s⁻¹ and a kcat/Km [2, 5] of 26700 ± 1170 M⁻¹ s⁻¹. For the same molecule, the Km [2, 3] was 14.4 ± 0.64 µM, the kcat [2, 3] was 0.69 ± 0.006 s⁻¹ and the kcat/Km [2, 3] was 47900 ± 2160 M⁻¹ s⁻¹. It also gave a Km [2, 4] of 145.3 ± 5.56 µM, a kcat [2, 4] of 2.74 ± 0.027 s⁻¹ and a kcat/Km [2, 4] of 18900 ± 750 M⁻¹ s⁻¹.
